One compound from paper PMC3708311 (Journal of medicinal chemistry, 2008) can be followed below.

One test deals with ROCK-II (Homo sapiens, UniProt O75116). Nature of the test: ROCK-II biochemical assay. As to conditions: ROCK-II IC50, as given in text.
For test [1], the system named is myosin light chain bisphosphorylation (ppMLC). Nature of the test: cell-based myosin light chain bisphosphorylation. As to conditions: read-out: ppMLC cell-based IC50.
The target of the next test is Akt3 (Homo sapiens, UniProt Q9Y243). Nature of the test: Ambit kinase screen, single-point, Akt3. In kind it is binding. As to conditions: read-out: percentage inhibition Akt3.
Akt3, sequence (Q9Y243 whole entry): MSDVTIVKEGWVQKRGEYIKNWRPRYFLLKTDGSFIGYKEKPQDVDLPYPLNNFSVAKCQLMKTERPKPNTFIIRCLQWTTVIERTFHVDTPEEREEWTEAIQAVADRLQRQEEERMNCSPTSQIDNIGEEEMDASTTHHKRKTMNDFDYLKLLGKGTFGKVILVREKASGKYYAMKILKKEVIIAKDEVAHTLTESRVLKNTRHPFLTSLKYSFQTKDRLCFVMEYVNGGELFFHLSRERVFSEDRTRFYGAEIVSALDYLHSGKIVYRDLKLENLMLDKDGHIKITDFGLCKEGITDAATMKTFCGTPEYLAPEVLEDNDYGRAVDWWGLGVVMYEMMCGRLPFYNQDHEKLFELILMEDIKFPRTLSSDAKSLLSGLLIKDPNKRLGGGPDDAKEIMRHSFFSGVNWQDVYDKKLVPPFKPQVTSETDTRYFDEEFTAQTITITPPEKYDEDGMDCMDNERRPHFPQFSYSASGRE
In the next test the target is Clk1 (Homo sapiens, UniProt P49759). Put plainly: Ambit kinase screen, single-point, Clk1. In kind it is binding. The note with it: read-out: percentage inhibition Clk1.
Clk1, sequence (P49759 whole entry): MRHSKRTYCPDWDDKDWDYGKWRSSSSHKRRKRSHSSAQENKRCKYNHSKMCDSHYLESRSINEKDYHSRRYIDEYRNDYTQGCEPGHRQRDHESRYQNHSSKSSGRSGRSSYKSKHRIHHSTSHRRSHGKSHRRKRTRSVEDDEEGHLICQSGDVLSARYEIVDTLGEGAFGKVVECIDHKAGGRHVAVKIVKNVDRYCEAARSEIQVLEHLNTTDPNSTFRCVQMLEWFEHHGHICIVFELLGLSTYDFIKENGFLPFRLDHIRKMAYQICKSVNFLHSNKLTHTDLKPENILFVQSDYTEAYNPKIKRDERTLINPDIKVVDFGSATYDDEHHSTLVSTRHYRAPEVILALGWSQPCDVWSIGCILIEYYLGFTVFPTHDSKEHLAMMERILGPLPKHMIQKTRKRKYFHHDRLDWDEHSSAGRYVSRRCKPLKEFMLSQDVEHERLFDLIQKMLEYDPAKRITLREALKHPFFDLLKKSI
In the next test the target is Clk2 (Homo sapiens, UniProt P49760). Put plainly: Ambit kinase screen, single-point, Clk2. In kind it is binding. As to conditions: read-out: percentage inhibition Clk2.
Clk2, sequence (P49760 whole entry): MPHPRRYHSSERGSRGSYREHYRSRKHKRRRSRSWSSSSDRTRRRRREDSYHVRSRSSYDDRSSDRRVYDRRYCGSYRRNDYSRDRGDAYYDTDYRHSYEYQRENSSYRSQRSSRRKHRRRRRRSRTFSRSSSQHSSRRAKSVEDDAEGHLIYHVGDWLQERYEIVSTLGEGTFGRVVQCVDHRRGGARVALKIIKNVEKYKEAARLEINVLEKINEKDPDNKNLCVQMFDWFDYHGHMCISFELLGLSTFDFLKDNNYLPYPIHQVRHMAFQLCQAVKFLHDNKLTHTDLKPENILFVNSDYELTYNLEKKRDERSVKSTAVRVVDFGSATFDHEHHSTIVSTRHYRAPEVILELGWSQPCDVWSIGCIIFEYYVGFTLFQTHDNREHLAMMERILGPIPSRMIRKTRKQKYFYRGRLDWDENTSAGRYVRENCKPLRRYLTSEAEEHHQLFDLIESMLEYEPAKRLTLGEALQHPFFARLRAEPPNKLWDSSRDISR
A further test addresses Clk4 (Homo sapiens, UniProt Q9HAZ1). Nature of the test: Ambit kinase screen, single-point, Clk4. The format is binding. The note with it: read-out: percentage inhibition Clk4.
In a further test the target is T1, Lats2 (Homo sapiens, UniProt Q9NRM7).
T1 sequence (Q9NRM7 1-1088): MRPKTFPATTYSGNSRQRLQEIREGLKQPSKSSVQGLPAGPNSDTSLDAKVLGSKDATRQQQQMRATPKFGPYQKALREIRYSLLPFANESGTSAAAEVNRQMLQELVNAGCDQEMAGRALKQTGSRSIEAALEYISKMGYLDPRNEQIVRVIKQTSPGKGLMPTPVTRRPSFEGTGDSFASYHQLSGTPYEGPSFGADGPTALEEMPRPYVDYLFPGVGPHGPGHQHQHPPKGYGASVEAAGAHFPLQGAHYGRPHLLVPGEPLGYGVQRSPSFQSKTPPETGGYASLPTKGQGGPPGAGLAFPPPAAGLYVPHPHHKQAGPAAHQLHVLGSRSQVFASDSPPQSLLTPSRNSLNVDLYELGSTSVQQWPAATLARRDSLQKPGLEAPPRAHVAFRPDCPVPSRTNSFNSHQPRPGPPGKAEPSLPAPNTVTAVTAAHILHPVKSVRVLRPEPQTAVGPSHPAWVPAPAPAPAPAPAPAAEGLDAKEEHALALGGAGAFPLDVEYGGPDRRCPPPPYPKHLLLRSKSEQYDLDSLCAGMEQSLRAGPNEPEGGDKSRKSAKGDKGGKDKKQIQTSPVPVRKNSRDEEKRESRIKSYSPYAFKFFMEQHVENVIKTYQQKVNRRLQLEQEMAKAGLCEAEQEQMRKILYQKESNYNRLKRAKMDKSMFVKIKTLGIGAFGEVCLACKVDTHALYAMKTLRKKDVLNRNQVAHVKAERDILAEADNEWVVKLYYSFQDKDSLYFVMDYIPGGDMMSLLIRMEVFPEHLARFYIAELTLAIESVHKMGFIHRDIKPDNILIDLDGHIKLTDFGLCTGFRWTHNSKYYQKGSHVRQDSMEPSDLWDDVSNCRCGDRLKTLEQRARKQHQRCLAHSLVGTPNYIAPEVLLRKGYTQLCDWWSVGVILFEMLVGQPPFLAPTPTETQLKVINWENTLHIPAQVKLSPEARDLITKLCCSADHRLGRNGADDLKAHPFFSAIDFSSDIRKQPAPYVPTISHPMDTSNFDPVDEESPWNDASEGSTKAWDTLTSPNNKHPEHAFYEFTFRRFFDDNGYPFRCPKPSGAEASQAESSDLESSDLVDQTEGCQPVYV
Put plainly: Ambit kinase screen, single-point, Lats2. The note with it: read-out: percentage inhibition Lats2. In kind it is binding.

The subject of another test is 353 kinases. Nature of the test: profiling versus 353 kinases. As to conditions: 3 µM. In kind it is binding.
A further test has as its target T2, adrenergic receptor α1a (Homo sapiens, UniProt P35348).
T2 sequence (P35348 1-466): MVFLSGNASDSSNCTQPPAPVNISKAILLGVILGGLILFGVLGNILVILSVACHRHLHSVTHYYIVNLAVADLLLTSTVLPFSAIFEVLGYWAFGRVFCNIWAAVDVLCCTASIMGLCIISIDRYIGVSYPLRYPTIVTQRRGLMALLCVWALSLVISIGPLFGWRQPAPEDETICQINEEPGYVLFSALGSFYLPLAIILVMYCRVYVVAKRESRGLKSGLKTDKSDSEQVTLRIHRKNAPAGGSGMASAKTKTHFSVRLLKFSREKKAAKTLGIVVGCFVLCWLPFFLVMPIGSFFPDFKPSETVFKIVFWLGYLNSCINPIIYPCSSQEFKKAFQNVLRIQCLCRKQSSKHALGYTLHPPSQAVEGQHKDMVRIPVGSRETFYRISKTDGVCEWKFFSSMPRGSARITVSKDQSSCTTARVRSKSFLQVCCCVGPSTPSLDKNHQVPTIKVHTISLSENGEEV
Nature of the test: nonkinase panel, adrenergic receptor α1a. In kind it is binding.

A further test addresses T3, adrenergic receptor α1b (Homo sapiens, UniProt P35368).
T3 sequence (P35368 1-520): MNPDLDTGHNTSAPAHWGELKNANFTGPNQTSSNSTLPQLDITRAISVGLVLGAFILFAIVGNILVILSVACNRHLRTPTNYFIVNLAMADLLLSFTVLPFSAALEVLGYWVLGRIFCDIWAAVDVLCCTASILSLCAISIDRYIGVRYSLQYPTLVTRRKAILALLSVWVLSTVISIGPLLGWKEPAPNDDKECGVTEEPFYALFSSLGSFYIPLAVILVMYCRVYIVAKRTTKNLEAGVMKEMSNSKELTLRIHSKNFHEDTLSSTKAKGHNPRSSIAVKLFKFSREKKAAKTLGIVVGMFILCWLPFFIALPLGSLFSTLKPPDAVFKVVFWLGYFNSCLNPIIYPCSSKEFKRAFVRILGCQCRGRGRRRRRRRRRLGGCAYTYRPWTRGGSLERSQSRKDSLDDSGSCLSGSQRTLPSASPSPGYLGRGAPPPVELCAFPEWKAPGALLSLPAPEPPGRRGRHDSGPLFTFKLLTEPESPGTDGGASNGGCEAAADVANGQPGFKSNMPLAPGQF
Nature of the test: nonkinase panel, adrenergic receptor α1b. In kind it is binding.

The target of another test is T4, adrenergic receptor α2a (Homo sapiens, UniProt P08913).
T4 sequence (P08913 1-465): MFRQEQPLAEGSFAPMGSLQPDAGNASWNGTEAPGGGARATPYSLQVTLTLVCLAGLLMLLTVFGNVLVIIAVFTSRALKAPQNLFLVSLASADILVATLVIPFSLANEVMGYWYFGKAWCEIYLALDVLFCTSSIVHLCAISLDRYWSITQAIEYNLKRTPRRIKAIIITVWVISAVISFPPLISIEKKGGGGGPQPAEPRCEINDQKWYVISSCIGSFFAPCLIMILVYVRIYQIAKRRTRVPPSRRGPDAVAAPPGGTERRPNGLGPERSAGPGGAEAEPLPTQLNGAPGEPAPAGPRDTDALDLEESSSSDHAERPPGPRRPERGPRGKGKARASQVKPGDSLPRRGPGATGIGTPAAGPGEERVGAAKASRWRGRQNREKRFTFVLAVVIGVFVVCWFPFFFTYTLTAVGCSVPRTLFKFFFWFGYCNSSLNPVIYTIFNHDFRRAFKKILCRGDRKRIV
Nature of the test: nonkinase panel, adrenergic receptor α2a. In kind it is binding.

In test [2] the test system is p-MLC in trabecular meshwork tissue. Nature of the test: Western blot analysis of p-MLC in TM tissue from perfused porcine eyes. The note with it: 25 µM, perfused at 15 mmHg for 5 h. Background: A western blot detects proteins with antibodies after separation by electrophoresis.
Test [3] relates to aqueous humor outflow facility from the trabecular meshwork. Put plainly: ex vivo aqueous humor outflow facility in perfused enucleated porcine eyes. As to conditions: 25 µM continuous exposure, 2–5 h time points, p < 0.01, porcine eyes ex vivo.

ROCK-II, sequence (O75116 whole entry, species assumed): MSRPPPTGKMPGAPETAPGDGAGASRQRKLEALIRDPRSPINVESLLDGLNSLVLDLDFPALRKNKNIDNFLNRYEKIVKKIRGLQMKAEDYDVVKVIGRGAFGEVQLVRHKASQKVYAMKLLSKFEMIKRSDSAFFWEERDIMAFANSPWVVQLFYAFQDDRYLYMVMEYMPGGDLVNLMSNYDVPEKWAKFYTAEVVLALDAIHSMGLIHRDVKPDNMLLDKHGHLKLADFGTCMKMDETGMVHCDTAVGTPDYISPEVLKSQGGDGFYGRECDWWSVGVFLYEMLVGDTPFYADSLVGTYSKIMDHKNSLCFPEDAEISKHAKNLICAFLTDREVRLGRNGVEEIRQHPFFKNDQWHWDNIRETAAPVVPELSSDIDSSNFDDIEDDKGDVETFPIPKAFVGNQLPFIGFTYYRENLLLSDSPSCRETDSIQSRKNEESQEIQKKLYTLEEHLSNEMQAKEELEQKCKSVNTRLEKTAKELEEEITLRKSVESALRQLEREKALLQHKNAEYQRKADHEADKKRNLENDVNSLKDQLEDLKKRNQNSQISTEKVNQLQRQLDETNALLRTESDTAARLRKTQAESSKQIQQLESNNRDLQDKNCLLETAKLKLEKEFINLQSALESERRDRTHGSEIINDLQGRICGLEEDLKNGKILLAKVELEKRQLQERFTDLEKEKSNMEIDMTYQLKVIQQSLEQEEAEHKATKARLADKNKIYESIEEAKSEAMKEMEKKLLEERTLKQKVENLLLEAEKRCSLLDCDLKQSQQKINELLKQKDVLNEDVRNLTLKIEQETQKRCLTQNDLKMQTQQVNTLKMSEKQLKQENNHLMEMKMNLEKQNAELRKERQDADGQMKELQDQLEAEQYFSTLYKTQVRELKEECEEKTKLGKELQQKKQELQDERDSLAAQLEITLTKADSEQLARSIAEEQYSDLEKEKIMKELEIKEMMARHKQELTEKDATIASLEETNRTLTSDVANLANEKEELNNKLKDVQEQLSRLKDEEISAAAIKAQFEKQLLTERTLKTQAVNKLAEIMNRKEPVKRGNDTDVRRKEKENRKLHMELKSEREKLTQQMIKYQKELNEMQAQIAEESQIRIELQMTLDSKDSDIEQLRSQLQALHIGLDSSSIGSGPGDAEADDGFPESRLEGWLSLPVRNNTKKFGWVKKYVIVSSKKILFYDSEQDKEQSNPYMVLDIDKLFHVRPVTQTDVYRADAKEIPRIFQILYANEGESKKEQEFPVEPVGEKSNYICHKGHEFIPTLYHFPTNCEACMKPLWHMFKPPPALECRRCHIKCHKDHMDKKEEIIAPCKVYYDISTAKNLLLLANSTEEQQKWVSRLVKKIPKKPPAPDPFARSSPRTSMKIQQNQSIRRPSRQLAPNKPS
Clk4, sequence (Q9HAZ1 whole entry): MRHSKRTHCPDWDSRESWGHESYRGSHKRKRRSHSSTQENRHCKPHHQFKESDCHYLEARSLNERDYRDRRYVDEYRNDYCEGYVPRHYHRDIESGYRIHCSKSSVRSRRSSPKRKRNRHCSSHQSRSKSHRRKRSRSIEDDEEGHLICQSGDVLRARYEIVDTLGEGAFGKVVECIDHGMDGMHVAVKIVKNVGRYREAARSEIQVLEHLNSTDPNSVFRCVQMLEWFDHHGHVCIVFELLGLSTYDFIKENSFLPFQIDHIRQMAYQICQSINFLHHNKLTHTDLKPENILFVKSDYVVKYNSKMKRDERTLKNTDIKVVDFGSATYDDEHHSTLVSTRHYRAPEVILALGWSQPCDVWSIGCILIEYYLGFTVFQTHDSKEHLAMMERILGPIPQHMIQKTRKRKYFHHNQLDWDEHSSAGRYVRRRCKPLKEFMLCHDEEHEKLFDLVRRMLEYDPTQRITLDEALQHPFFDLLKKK

The IC50 is the concentration needed to halve the response being measured. The inhibition is the drop in the measured response relative to a control, in per cent. Turning to `CN(C)CCOc1cc(-c2cn[nH]c2)ccc1NC(=O)C1COc2ccccc2O1` (centres unmarked) [Compound 5], the half-inhibitory concentration (IC50) is approximately 3 nM at ROCK-II; approximately 3 nM in test [1]; approximately 1000 nM at adrenergic receptor α1a; approximately 1000 nM at adrenergic receptor α1b; approximately 1000 nM at adrenergic receptor α2a. The inhibition at 3 µM on Akt3, at Clk1, on Clk2, on Clk4 and at Lats2 was more than 50% throughout. In the test with 353 kinases (353 kinases, hits = inhibition greater than 50%), this compound registered an off-target hit rate of 1.4%. For the same compound, the “inhibition of all other kinases of the panel” value with 353 kinases (single-point, no or very low inhibition) is less than 10%. Further, the “inhibition of Rho kinase in the TM tissue (p-MLC Western blot)” value in test [2] is “greater than 90%”. In addition, the “increase of aqueous humor outflow facility” value in [3] is 70–80%.
